Format in all cases: biochemical
Assay [1] deals with T1, triosephosphate isomerase (Tbb TIM) (Trypanosoma brucei, UniProt P04789). In words: 1H NMR turnover in D2O.
Assay [2] concerns the target T1, triosephosphate isomerase (Tbb TIM). The assay is described as follows: activation of the TIM-catalyzed reaction of [[…]-13C]-GA in D2O followed by 1H NMR.
For assay [3] the target is unchanged. In words: coupled enzyme assay.

Data on three molecules can be found in publication PMC3138527 (2011).

T1 sequence (P04789 whole entry): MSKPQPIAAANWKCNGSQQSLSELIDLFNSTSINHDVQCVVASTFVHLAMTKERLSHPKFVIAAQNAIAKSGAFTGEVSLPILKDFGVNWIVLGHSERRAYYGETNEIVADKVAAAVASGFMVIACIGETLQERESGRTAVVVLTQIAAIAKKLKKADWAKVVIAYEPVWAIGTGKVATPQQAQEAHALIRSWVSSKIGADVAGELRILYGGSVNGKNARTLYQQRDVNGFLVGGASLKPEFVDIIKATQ

In the case of `O=CCO` [[1-^13C]-GA, glycolaldehyde], the “1H NMR turnover in D2O; kcat/Km with saturating phosphite” value in assay [1] turned out to be 64 ± 6 M⁻¹ s⁻¹. The term Kd denotes the free concentration of one partner at which half of the binding sites on the other are occupied at equilibrium, for simple one-to-one binding. The low end stands for a tighter complex, the high end for a looser complex. For the molecule `O=[PH](O)O` [phosphite dianion], the dissociation constant (Kd) in assay [2] worked out at 19 ± 3 mM. For orientation: Km means the substrate concentration at which the rate is half of its maximum. As for `O=C[C@H](O)COP(=O)(O)O` [GAP, (R)-glyceraldehyde 3-phosphate], the Km in assay [3] turned out to be 250 µM.
